Results on 4 compounds are retold here after ChEMBL document CHEMBL5678797, “AZD7762, a novel checkpoint kinase inhibitor, drives checkpoint abrogation and potentiates DNA-targeted therapies” (Mol Cancer Ther, 2008).

The EC50 is the concentration that produces a half-maximal response. Broadly, the GI50 is the concentration at which growth is held to half of that of the control.

The test system of series [1] is HT-29. Kind of series: Inhibition of camptothecin induced DNA damage in human HT-29 cells assessed as G2 checkpoint abrogation measured after 20 hrs presence of nocodazole by pHH3 staining based analysis.
The subject of series [2] is HT-29. Kind of series: Induction of cell cycle arrest in human HT-29 cells incubated for 20 hrs by phH3 staining based analysis.
Series [3] concerns SW-620. The series can be described thus: Growth inhibition of human SW620 cells expressing p53 mutant assessed as reduction in cell growth incubated for 48 hrs in presence of gemcitabine. It is filed as functional.
Series [4] concerns MDA-MB-231. The series can be described thus: Growth inhibition of human MDA-MB-231 cells expressing p53 mutant assessed as reduction in cell growth incubated for 48 hrs in presence of topotecan. It is filed as functional.
Series [5] relates to HCT-116. Kind of series: Induction of G2 check point abrogation in human HCT-116 cells assessed as accumulation of cells at G1 phase incubated for 30 hrs in presence of topotecan by fluorescence-activated cell sorting analysis (reference value: 68.52%). Format: functional.
In series [6] the test system is HCT-116. The series can be described thus: Induction of G2 check point abrogation in human HCT-116 cells assessed as accumulation of cells at G2 phase incubated for 30 hrs in presence of topotecan by fluorescence-activated cell sorting analysis (reference value: 9.45%). It is filed as functional.
Series [7] deals with NCI-H460. Kind of series: Antitumor activity against human NCI-H460 cells expressing DNp53 mutant xenografted in NCr athymic mouse model assessed as reduction in tumor volume at 25 mg/kg measured after 10 to 45 days in presence of gemcitabine by caliper method relative to control. It is filed as functional. Details: scale not given: the % may be the effect or the level left. The note with it: time 10-45 day. (In general: A xenograft is tissue or cells of one species grown in another, often human tumour cells in immunodeficient mice.)

Series [8] relates to NCI-H460. The series can be described thus: Antitumor activity against human NCI-H460 cells expressing DNp53 mutant xenografted in NCr athymic mouse model assessed as log cell kill 25 mg/kg measured after 10 to 45 days in presence of gemcitabine. It is filed as functional. The note with it: time 10-45 day.
For series [9], the system named is NCI-H460. The series can be described thus: Antitumor activity against human NCI-H460 cells expressing DNp53 mutant xenografted in NCr athymic mouse model assessed as T/C ratio at 25 mg/kg measured after 10 to 45 days in presence of gemcitabine by caliper method relative to control. It is filed as functional. The following applies: time 10-45 day.
The nature of series [10]: Toxicity in NCr athymic mouse assessed as body weight loss at 25 mg/kg measured after 10 to 45 days in presence of gemcitabine relative to control. It is filed as organism-based. The following applies: in vivo, time 10-45 day.
The subject of series [11] is SW-620. The series can be described thus: Antitumor activity against human SW620 cells xenografted in NCr athymic mouse model assessed as reduction in tumor volume at 12.5 mg/kg measured from 30 to 55 days in presence of gemcitabine by caliper method relative to control. Format: functional. Set-up: scale not given: the % may be the effect or the level left. The following applies: time 30-55 day.

The subject of series [12] is SW-620. The series can be described thus: Antitumor activity against human SW620 cells xenografted in NCr athymic mouse model assessed as reduction in tumor volume at 25 mg/kg measured from 30 to 55 days in presence of gemcitabine by caliper method relative to control. It is filed as functional. Set-up: scale not given: the % may be the effect or the level left. The following applies: time 30-55 day.

Series [13] can be described thus: Toxicity in NCr athymic mouse xenografted with human SW620 cells assessed as effect on body weight loss at 12.5 to 25 mg/kg measured after 30 to 55 days in presence of gemcitabine. It is filed as organism-based, SW-620. The following applies: in vivo, dose lower 12.5 mg/kg, time lower 30 day, dose upper 25 mg/kg, time upper 55 day.
Series [14] deals with NCI-H460. Kind of series: Antitumor activity against human NCI-H460 cells expressing DNp53 mutant xenografted in rat model assessed as T/C ratio at 10 mg/kg measured after 10 to 30 days post tumor implantation in presence of gemcitabine by caliper method relative to control. It is filed as functional. The following applies: time 10-30 day.
Series [15] concerns NCI-H460. Kind of series: Antitumor activity against human NCI-H460 cells expressing DNp53 mutant xenografted in rat model assessed as T/C ratio at 20 mg/kg measured after 10 to 30 days post tumor implantation in presence of gemcitabine by caliper method relative to control. It is filed as functional. The note with it: time 10-30 day.
The nature of series [16]: Toxicity in rat at low dose measured after 10 to 30 days post tumor implantation. The note with it: in vivo, time 10-30 day.
Series [17] in a line: Toxicity in rat assessed as effect on body weight loss at high dose measured after 10 to 30 days post tumor implantation. The note with it: in vivo, time 10-30 day.
Series [18] can be described thus: Toxicity in rnu rat assessed as appearance of skin rashes at 10 to 20 mg/kg, iv measured after 10 to 30 days post tumor implantation. Format: organism-based. The note with it: in vivo, dose lower 10 mg/kg, time lower 10 day, dose upper 20 mg/kg, time upper 30 day.
For series [19], the system named is SW-620. The series can be described thus: Antitumor activity against human SW620 cells xenografted in athymic mouse model assessed as T/C ratio at 25 mg/kg measured after 17 to 94 days post tumor implantation by caliper method relative to control. It is filed as functional. The following applies: time 17-94 day.
The test system of series [20] is SW-620. The series can be described thus: Antitumor activity against human SW620 cells xenografted in athymic mouse model assessed as T/C ratio at 25 mg/kg measured after 17 to 94 days post tumor implantation in presence of 25 mg/kg of irinotecan by caliper method relative to control. The following applies: time 17-94 day. Format: functional.
In series [21] the test system is SW-620. The series can be described thus: Antitumor activity against human SW620 cells xenografted in athymic mouse model assessed as T/C ratio at 25 mg/kg measured after 17 to 94 days post tumor implantation in presence of 50 mg/kg of irinotecan by caliper method relative to control. It is filed as functional. The following applies: time 17-94 day.
For series [22], the system named is SW-620. Kind of series: Antitumor activity against human SW620 cells xenografted in athymic mouse model assessed as inhibition of tumor volume at 25 mg/kg measured after 17 to 94 days post tumor implantation by caliper method relative to control. The note with it: time 17-94 day. It is filed as functional. Details: scale not given: the % may be the effect or the level left.

For series [23], the system named is SW-620. The series can be described thus: Antitumor activity against human SW620 cells xenografted in athymic mouse model assessed as inhibition of tumor volume at 25 mg/kg measured after 17 to 94 days post tumor implantation in presence of 25 mg/kg of irinotecan by caliper method relative to control. It is filed as functional. Set-up: scale not given: the % may be the effect or the level left. The note with it: time 17-94 day.

Series [24] has as its system SW-620. Kind of series: Antitumor activity against human SW620 cells xenografted in athymic mouse model assessed as inhibition of tumor volume at 25 mg/kg measured after 17 to 94 days post tumor implantation in presence of 50 mg/kg of irinotecan by caliper method relative to control. Format: functional. Details: scale not given: the % may be the effect or the level left. The note with it: time 17-94 day.

Series [25] in a line: Toxicity in athymic mouse assessed as maximum weight loss at 25 mg/kg measured after 17 to 94 days post tumor implantation. Format: organism-based. The note with it: in vivo, time 17-94 day.
A short description of series [26]: Toxicity in athymic mouse assessed as maximum weight loss at 25 mg/kg measured after 17 to 94 days post tumor implantation in presence of 25 mg/kg of irinotecan. The following applies: in vivo, time 17-94 day. It is filed as organism-based.
A short description of series [27]: Toxicity in athymic mouse assessed as maximum weight loss at 25 mg/kg measured after 17 to 94 days post tumor implantation in presence of 50 mg/kg of irinotecan. It is filed as organism-based. The following applies: in vivo, time 17-94 day.
Series [28] can be described thus: Toxicity in rnu rat assessed as appearance of skin rashes at 10 mg/kg measured after 10 to 30 days. The following applies: in vivo, time 10-30 day. It is filed as organism-based.
Series [29] can be described thus: Toxicity in rnu rat assessed as appearance of hemorrhage at 10 mg/kg measured after 10 to 30 days. Format: organism-based. The note with it: in vivo, time 10-30 day.
For series [30], the system named is SW-620. The series can be described thus: Growth inhibition of human SW620 cells expressing p53 mutant assessed as reduction in cell growth incubated for 48 hrs. Format: functional.
Series [31] has as its system SW-620. The series can be described thus: Antitumor activity against human SW620 cells xenografted in athymic mouse model assessed as T/C ratio at 50 mg/kg measured after 17 to 94 days post tumor implantation by caliper method relative to control. Format: functional. The following applies: time 17-94 day.
A short description of series [32]: Toxicity in athymic mouse assessed as maximum weight loss at 50 mg/kg measured after 17 to 94 days post tumor implantation. Format: organism-based. The following applies: in vivo, time 17-94 day.
Series [33] has as its system HCT-116. Kind of series: Induction of G2 check point abrogation in human HCT-116 cells assessed as accumulation of cells at G1 phase incubated for 30 hrs by fluorescence-activated cell sorting analysis (reference value: 68.52%). It is filed as functional.
Series [34] has as its system HCT-116. The series can be described thus: Induction of G2 check point abrogation in human HCT-116 cells assessed as accumulation of cells at G2 phase incubated for 30 hrs by fluorescence-activated cell sorting analysis (reference value: 9.45%). Format: functional.
Series [35] relates to MDA-MB-231. Kind of series: cells. The note with it: Homo sapiens, MDA-MB-231, 48 h.

Take `NC(=O)Nc1cc(-c2cccc(F)c2)sc1C(=O)N[C@H]1CCCNC1` [AZD-7762]: the EC50 was found to be 10 nM in series [1] and 620 nM in series [2]. Besides, the GI50 in series [3] is 1.08 nM; in [4], 150 nM. In addition, in series [3] (read-out: GI100), the TGI stood at 1.5 nM. Also, the Activity stood at 52.86% in series [5]; 33.02% in series [6]; 76% in series [7]; 7% in [10]; 73% in [11]; 77% in [12]. The Activity entry in series [13] was “Non-Toxic”; in series [16], “Non-Toxic”; in series [17], “Toxic”; in series [18], “Non-Toxic”; in [22], 38%; in series [23] it was 116%. The Activity is given as 116% in [24], 0% in series [25], 0% in [26] and 0% in series [27]. Also, the LCK in [8] was 0.9. Further, the T/C in [9] was 26%; in series [14], 48%; in series [15], 32%; in series [19], 56%; in series [20] it was -66%; in [21] it was -67%.

Consider `Nc1ccn([C@@H]2O[C@H](CO)[C@@H](O)C2(F)F)c(=O)n1` [GEMCITABINE], for which the Activity result in series [28] and in series [29] was “Toxic” each time. Moreover, the GI50 in [30] was 24.1 nM. Moreover, the TGI in [30] (read-out: GI100) is above 100 nM.

For the compound `CCc1c2c(nc3ccc(OC(=O)N4CCC(N5CCCCC5)CC4)cc13)-c1cc3c(c(=O)n1C2)COC(=O)[C@]3(O)CC` [IRINOTECAN], the T/C in series [19] came out at 9%; in series [31], 1%. Further, the results for the Activity in series [25] and in [32] were 0% and -1%, respectively.

Turning to `CC[C@@]1(O)C(=O)OCc2c1cc1n(c2=O)Cc2cc3c(CN(C)C)c(O)ccc3nc2-1` [TOPOTECAN], the figures for the Activity in [33] and in series [34] were 17.06% and 75.85%, respectively. Also, the GI50 in [35] stood at 2250 nM.
